IC50 data for 29 compounds are collected here from patent US20250186437A1, “CARBOLINE COMPOUNDS AND USE THEREOF” (PTC Therapeutics, Inc., priority 2021, published 2025).

The experiment has as its system MOLM-13 cells. Kind of experiment: MOLM-13 Cell Proliferation Assay (indicator of DHODH inhibition). Format: cell-based. The conditions noted are these: Homo sapiens, 72 Hours of culture, CellTiter-Glo, no uridine. The method in brief: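 Low-passage MOLM-13 cells (10^4/well) in RPMI 1640 + 10% FBS exposed to compound (0.5% DMSO final) for 72 h at 37 °C, 5% CO2. Viability read by CellTiter-Glo luminescence; growth reflects de novo pyrimidine synthesis dependent on DHODH.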
Background: In ATP-based viability assays light output follows the ATP content of the culture.

pIC50: −log10 of the molar value.

The pIC50 is −log10 of the IC50, conventionally taken in molar units. Lower therefore signals a large IC50. On to `Fc1c(Cl)ccc2[nH]c3c(c12)CCN(c1ncc(Cl)cn1)C3c1ccc(Cl)cc1` (centres unmarked) [Compound 27, 6-chloro-1-(4-chlorophenyl)-2-(5-chloropyrimidin-2-yl)-5-fluoro-2,3,4,9-tetrahydro-1H-pyrido[3,4-b]indole], for which the pIC50 was 7.75. Compound `CN1CCN(c2ncc([C@H]3c4[nH]c5ccc(Br)cc5c4CCN3c3nc(C(F)(F)F)cc(C(F)(F)F)n3)cn2)CC1` [Compound 499, (1S)-2-[4,6-bis(trifluoromethyl)pyrimidin-2-yl]-6-bromo-1-[2-(4-methylpiperazin-1-yl)pyrimidin-5-yl]-2,3,4,9-tetrahydro-1H-pyrido[3,4-b]indole] showed a pIC50 of 9.52. `Fc1cnc(N2CCc3c([nH]c4ccc(Cl)c(F)c34)C2c2cnc(N3CCOCC3)nc2)nc1` (centres unmarked) [Compound 211, 6-chloro-5-fluoro-2-(5-fluoropyrimidin-2-yl)-1-[2-(morpholin-4-yl)pyrimidin-5-yl]-2,3,4,9-tetrahydro-1H-pyrido[3,4-b]indole] showed a pIC50 of 8.31.

The compound `CN1CCN(c2ncc([C@H]3c4[nH]c5ccc(-n6nccn6)cc5c4CCN3c3nc(C(F)(F)F)cc(C(F)(F)F)n3)cn2)CC1` [Compound 500, (1S)-2-[4,6-bis(trifluoromethyl)pyrimidin-2-yl]-1-[2-(4-methylpiperazin-1-yl)pyrimidin-5-yl]-6-(2H-1,2,3-triazol-2-yl)-2,3,4,9-tetrahydro-1H-pyrido[3,4-b]indole] gave a pIC50 of 9.10.

In turn, `Cc1cc(C)nc(N2CCc3c([nH]c4ccc(Cl)cc34)C2c2ccc(C)c(F)c2F)n1` (centres unmarked) [Compound 342, 6-chloro-1-(2,3-difluoro-4-methylphenyl)-2-(4,6-dimethylpyrimidin-2-yl)-2,3,4,9-tetrahydro-1H-pyrido[3,4-b]indole] had a pIC50 of 9.00. The pIC50 values of the last two compounds are within 0.2 log units of each other.

Compound `Oc1cc(C2c3[nH]c4ccc(Cl)cc4c3CCN2c2ncc(F)cn2)ccc1Cl` (centres unmarked) [Compound 219, 2-chloro-5-[6-chloro-2-(5-fluoropyrimidin-2-yl)-2,3,4,9-tetrahydro-1H-pyrido[3,4-b]indol-1-yl]phenol] had a negative logarithm of the IC50 (pIC50) of 7.63. The figure for `Cc1ccc([C@H]2c3[nH]c4ccc(Cl)cc4c3CCN2c2nc(C#N)nc(C(F)(F)F)n2)c(F)c1F` [Compound 390, 4-[(1S)-6-chloro-1-(2,3-difluoro-4-methylphenyl)-1,3,4,9-tetrahydro-2H-pyrido[3,4-b]indol-2-yl]-6-(trifluoromethyl)-1,3,5-triazine-2-carbonitrile] is 8.46; for `Cc1ccc(C2c3[nH]c4c(N)cc(Cl)cc4c3CCN2c2nc(C)nc(C)n2)cc1` (centres unmarked) [Compound 292, 6-chloro-2-(4,6-dimethyl-1,3,5-triazin-2-yl)-1-(4-methylphenyl)-2,3,4,9-tetrahydro-1H-pyrido[3,4-b]indol-8-amine] it is 7.92; for `Cc1ccc([C@H]2c3[nH]c4ccc(Cl)cc4c3CCN2c2nc(C)c(F)c(C)n2)c(F)c1F` [Compound 412, (1S)-6-chloro-1-(2,3-difluoro-4-methylphenyl)-2-(5-fluoro-4,6-dimethylpyrimidin-2-yl)-2,3,4,9-tetrahydro-1H-pyrido[3,4-b]indole] it is 9.00. For `CN(C)c1ncc(C2c3[nH]c4ccc(Cl)c(F)c4c3CCN2c2ncc(F)cn2)cn1` (centres unmarked) [Compound 201, 5-[6-chloro-5-fluoro-2-(5-fluoropyrimidin-2-yl)-2,3,4,9-tetrahydro-1H-pyrido[3,4-b]indol-1-yl]-N,N-dimethylpyrimidin-2-amine] the value was 8.10; for `Cc1ccc(C2c3[nH]c4cc(F)c(Cl)cc4c3CCN2c2ncc(C(F)(F)F)cn2)c(F)c1F` (centres unmarked) [Compound 142, 6-chloro-1-(2,3-difluoro-4-methylphenyl)-7-fluoro-2-[5-(trifluoromethyl)pyrimidin-2-yl]-2,3,4,9-tetrahydro-1H-pyrido[3,4-b]indole], 8.37; for `Cc1ccc(C2c3[nH]c4ccc(-n5nccn5)cc4c3CCN2c2nccc(C(F)(F)F)n2)c(F)c1F` (centres unmarked) [Compound 502, 1-(2,3-difluoro-4-methylphenyl)-6-(2H-1,2,3-triazol-2-yl)-2-[4-(trifluoromethyl)pyrimidin-2-yl]-2,3,4,9-tetrahydro-1H-pyrido[3,4-b]indole], 8.68.

For the compound `Cc1ccc(C2c3[nH]c4ccc(Cl)c(F)c4c3CCN2c2ncc(Cl)cn2)c(F)c1F` (centres unmarked) [Compound 195, 6-chloro-2-(5-chloropyrimidin-2-yl)-1-(2,3-difluoro-4-methylphenyl)-5-fluoro-2,3,4,9-tetrahydro-1H-pyrido[3,4-b]indole], the pIC50 is 9.00.

`Cc1ccc([C@H]2c3[nH]c4ccc(Cl)cc4c3CCN2c2nc(C)nc(C)n2)cc1` [Compound 402, (1S)-6-chloro-2-(4,6-dimethyl-1,3,5-triazin-2-yl)-1-(4-methylphenyl)-2,3,4,9-tetrahydro-1H-pyrido[3,4-b]indole] showed a pIC50 of 8.33. For `C=Cc1ccc(C2c3[nH]c4ccc(Cl)cc4c3CCN2c2ncc(F)cn2)cc1` (centres unmarked) [Compound 71, 6-chloro-1-(4-ethenylphenyl)-2-(5-fluoropyrimidin-2-yl)-2,3,4,9-tetrahydro-1H-pyrido[3,4-b]indole] the value was 7.71.

With `C[C@H]1CN(c2ncc([C@H]3c4[nH]c5ccc(Cl)cc5c4CCN3c3nc(C(F)(F)F)cc(C(F)(F)F)n3)cn2)CCN1` [Compound 517, (1S)-2-[4,6-bis(trifluoromethyl)pyrimidin-2-yl]-6-chloro-1-{2-[(3S)-3-methylpiperazin-1-yl]pyrimidin-5-yl}-2,3,4,9-tetrahydro-1H-pyrido[3,4-b]indole], the negative-log IC50 (pIC50) is 8.49. The figure for `Cc1ccc(C2c3[nH]c4cc(F)c(Cl)cc4c3CCN2c2nc(C(F)(F)F)cc(C(F)(F)F)n2)cc1` (centres unmarked) [Compound 154, 2-[4,6-bis(trifluoromethyl)pyrimidin-2-yl]-6-chloro-7-fluoro-1-(4-methylphenyl)-2,3,4,9-tetrahydro-1H-pyrido[3,4-b]indole] is 9.05; for `Cc1nc(N2CCc3c([nH]c4ccc(Cl)c(F)c34)C2c2ccc(/C=C/CCO)cc2)nc(C)c1F` (centres unmarked) [Compound 243, (3E)-4-{4-[6-chloro-5-fluoro-2-(5-fluoro-4,6-dimethylpyrimidin-2-yl)-2,3,4,9-tetrahydro-1H-pyrido[3,4-b]indol-1-yl]phenyl}but-3-en-1-ol] it is 8.96; for `Cc1ccnc(N2CCc3c([nH]c4ccc(Cl)c(F)c34)C2c2ccc(C)c(F)c2F)n1` (centres unmarked) [Compound 196, 6-chloro-1-(2,3-difluoro-4-methylphenyl)-5-fluoro-2-(4-methylpyrimidin-2-yl)-2,3,4,9-tetrahydro-1H-pyrido[3,4-b]indole] it is 8.74.

`Fc1c(Cl)ccc2[nH]c3c(c12)CCN(c1nccc(C(F)(F)F)n1)C3c1cnc(N2CCOCC2)nc1` (centres unmarked) [Compound 200, 6-chloro-5-fluoro-1-[2-(morpholin-4-yl)pyrimidin-5-yl]-2-[4-(trifluoromethyl)pyrimidin-2-yl]-2,3,4,9-tetrahydro-1H-pyrido[3,4-b]indole] had a pIC50 of 8.68.

With `Cc1ccc([C@@H]2c3[nH]c4ccc(Cl)c(F)c4c3CCN2c2nc(C)c(F)c(C)n2)c(F)c1F` [Compound 190, (1R)-6-chloro-1-(2,3-difluoro-4-methylphenyl)-5-fluoro-2-(5-fluoro-4,6-dimethylpyrimidin-2-yl)-2,3,4,9-tetrahydro-1H-pyrido[3,4-b]indole], the pIC50 is 6.38. Compared with the last compound, the pIC50 is 2.30 log units lower.

`Fc1cnc(N2CCc3c([nH]c4cc(F)c(Cl)cc34)C2c2ccc(Cl)cc2)nc1` (centres unmarked) [Compound 11, 6-chloro-1-(4-chlorophenyl)-7-fluoro-2-(5-fluoropyrimidin-2-yl)-2,3,4,9-tetrahydro-1H-pyrido[3,4-b]indole] had a negative logarithm of the IC50 (pIC50) of 7.45. The figure for `Cc1ccc(C2c3[nH]c4ccc(Cl)cc4c3CCN2c2nc(Cl)cc(Cl)n2)cc1` (centres unmarked) [Compound 7, 6-chloro-2-(4,6-dichloropyrimidin-2-yl)-1-(4-methylphenyl)-2,3,4,9-tetrahydro-1H-pyrido[3,4-b]indole] is 9.22. The figure for `FC(F)(F)c1ccnc(N2CCc3c([nH]c4ccc(Cl)cc34)C2c2ccc(N3C[C@@H]4C[C@H]3CO4)nc2)n1` (stereo partly drawn) [Compound 375, 6-chloro-1-{6-[(1S,4S)-2-oxa-5-azabicyclo[2.2.1]heptan-5-yl]pyridin-3-yl}-2-[4-(trifluoromethyl)pyrimidin-2-yl]-2,3,4,9-tetrahydro-1H-pyrido[3,4-b]indole] is 8.17; for `Cc1nc(N2CCc3c([nH]c4ccc(Cl)cc34)C2c2cnc(N3CCOCC3)nc2)ncc1F` (centres unmarked) [Compound 366, 6-chloro-2-(5-fluoro-4-methylpyrimidin-2-yl)-1-[2-(morpholin-4-yl)pyrimidin-5-yl]-2,3,4,9-tetrahydro-1H-pyrido[3,4-b]indole] it is 8.00; for `Cc1ccc([C@H]2c3[nH]c4ccc(Cl)cc4c3CCN2c2ncc(F)c(C#N)n2)cc1` [Compound 392, 2-[(1S)-6-chloro-1-(4-methylphenyl)-1,3,4,9-tetrahydro-2H-pyrido[3,4-b]indol-2-yl]-5-fluoropyrimidine-4-carbonitrile] it is 8.51.

For the compound `Fc1ccccc1C1c2[nH]c3ccc(Cl)cc3c2CCN1c1nccc(C(F)(F)F)n1` (centres unmarked) [Compound 341, 6-chloro-1-(2-fluorophenyl)-2-[4-(trifluoromethyl)pyrimidin-2-yl]-2,3,4,9-tetrahydro-1H-pyrido[3,4-b]indole], the negative-log IC50 (pIC50) is 8.17. This pIC50 is 0.34 log units lower than that of the compound before.

`OCCOCc1ccc(C2c3[nH]c4cc(F)c(Cl)cc4c3CCN2c2nccc(C(F)(F)F)n2)cc1` (centres unmarked) [Compound 223, 2-[(4-{6-chloro-7-fluoro-2-[4-(trifluoromethyl)pyrimidin-2-yl]-2,3,4,9-tetrahydro-1H-pyrido[3,4-b]indol-1-yl}phenyl)methoxy]ethan-1-ol] gave a negative logarithm of the IC50 (pIC50) of 8.70. The figure for `Fc1c(C2c3[nH]c4ccc(Cl)cc4c3CCN2c2nccc(C(F)(F)F)n2)ccc(-n2ccnc2)c1F` (centres unmarked) [Compound 285, 6-chloro-1-[2,3-difluoro-4-(1H-imidazol-1-yl)phenyl]-2-[4-(trifluoromethyl)pyrimidin-2-yl]-2,3,4,9-tetrahydro-1H-pyrido[3,4-b]indole] is 8.55.
